Data as given in ChEMBL document CHEMBL4340502, “Anti-biofilm and anti-adherence properties of novel cyclic dipeptides against oral pathogens” (Bioorg Med Chem, 2019).
Values after ≈ are worked out from the molar mass of the structure shown. Active and inactive are the calls of the source. Unless noted, the rule behind the calls is not given here.

Columns and labels:
Candida albicans [1] = experiment: Antibiofilm activity against Candida albicans ATCC 28366 assessed as reduction of biofilm formation up to 96 ug/mL after 24 hrs by crystal violet staining based assay; type: functional, organism-based
Streptococcus mutans [2] = experiment: Inhibition of planktonic growth of Streptococcus mutans ATCC 25175 at MIC> 192 ug/mL after 24 hrs relative to control; type: organism-based
[3] = system: Limosilactobacillus fermentum; experiment: Antibiofilm activity against Lactobacillus fermentum LacB1 assessed as inhibition of biofilm formation up to 96 ug/mL after 24 hrs by crystal violet staining based assay; type: functional, organism-based
Pseudomonas aeruginosa [4] = experiment: Growth inhibition of Pseudomonas aeruginosa ATCC 10145 incubated for 24 hrs under aerobic condition by microdilution method; type: organism-based
Streptococcus mutans [5] = experiment: Inhibition of planktonic growth of Streptococcus mutans ATCC 25175 up to 96 ug/mL after 24 hrs relative to control; type: organism-based
Fibroblast = experiment: Cytotoxicity against human fibroblasts; type: cell-based
Escherichia coli [6] = experiment: Growth inhibition of Escherichia coli ATCC 15939 incubated for 24 hrs under aerobic condition by microdilution method; type: organism-based
Pseudomonas aeruginosa [7] = experiment: Antibacterial activity against Pseudomonas aeruginosa MTCC 2642 measured after 24 hrs by broth dilution method; type: functional; details: MTCC 2642, 24 h
Staphylococcus aureus [8] = experiment: Growth inhibition of Staphylococcus aureus ATCC 6538 incubated for 24 hrs under aerobic condition by microdilution method; type: organism-based; details: in vitro
Staphylococcus aureus [9] = experiment: Antibacterial activity against Staphylococcus aureus MTCC 902 measured after 24 hrs by broth dilution method; type: functional; details: MTCC 902, 24 h
Porphyromonas gingivalis = experiment: Antibiofilm activity against Porphyromonas gingivalis ATCC 33277 assessed as inhibition of biofilm formation up to 96 ug/mL after 24 hrs by crystal violet staining based assay; type: functional, organism-based
Candida albicans [10] = experiment: Growth inhibition of Candida albicans ATCC 28366 up to 96 ug/ml measured after 24 hrs by microdilution method; type: organism-based; details: in vitro
Escherichia coli [11] = experiment: Antibacterial activity against Escherichia coli MTCC 2622 measured after 24 hrs by broth dilution method; type: functional; details: MTCC 2622, 24 h
Fusobacterium nucleatum = experiment: Antibiofilm activity against Fusobacterium nucleatum ATCC 25586 assessed as inhibition of biofilm formation up to 96 ug/mL after 24 hrs by crystal violet staining based assay; type: functional, organism-based
Listeria monocytogenes = experiment: Growth inhibition of Listeria monocytogenes WSLC 1001 incubated for 24 hrs under aerobic condition by microdilution method; type: organism-based; details: in vitro
Candida albicans [12] = experiment: Antiadherence activity against FITC-labelled Candida albicans ATCC 28366 assessed as reduction in bacterial adhesion to hydroxylapatite up to 96 ug/mL after 1 hr by fluorescence assay relative to control; type: functional
Streptococcus mutans [13] = experiment: Antibiofilm activity against Streptococcus mutans ATCC 25175 assessed as inhibition of biofilm formation up to 96 ug/mL after 24 hrs by crystal violet staining-based assay; type: functional, organism-based
Actinomyces naeslundii [14] = experiment: Antibiofilm activity against Actinomyces naeslundii ATCC 49340 assessed as reduction in biofilm formation up to 96 ug/mL after 24 hrs by crystal violet staining-based assay; type: functional, organism-based
Actinomyces naeslundii [15] = experiment: Antibiofilm activity against Actinomyces naeslundii ATCC 49340 assessed as prevention of homogenous biofilm formation at 96 ug/mL after 24 hrs by crystal violet staining-based assay; type: functional, organism-based
Streptococcus mutans [16] = experiment: Disruption of Streptococcus mutans ATCC 25175 pre-formed mature biofilm assessed as reduction in biofilm biomass at 96 ug/mL after 12 hrs by crystal violet staining based assay; type: functional, organism-based
Streptococcus mutans [17] = experiment: Antibiofilm activity against Streptococcus mutans ATCC 25175 assessed as inhibition of biofilm formation at 6 to 12 ug/mL after 24 hrs by crystal violet staining-based assay; type: functional, organism-based
Candida albicans [18] = experiment: Antibiofilm activity against Candida albicans ATCC 28366 assessed as reduction of biofilm formation at 24 to 48 ug/mL after 24 hrs by crystal violet staining based assay; type: functional, organism-based
Streptococcus mutans [19] = experiment: Antiadherence activity in FITC-labelled Streptococcus mutans ATCC 25175 assessed as reduction in bacterial adhesion to hydroxylapatite up to 96 ug/mL after 1 hr fluorescence assay; type: functional, organism-based
Candida albicans [20] = experiment: Disruption of Candida albicans ATCC 28366 pre-formed mature biofilm assessed as reduction in biofilm biomass at 96 ug/mL after 12 hrs by crystal violet staining based assay; type: functional, organism-based
Candida albicans [21] = experiment: Antibiofilm activity against Candida albicans ATCC 28366 assessed as reduction of biofilm formation after 24 hrs by crystal violet staining based assay; type: functional, organism-based
Candida albicans [22] = experiment: Antiadherence activity in FITC-labelled Candida albicans ATCC 28366 assessed as reduction of bacterial adhesion to hydroxylapatite at 96 ug/mL after 1 hr by fluorescence assay relative to control; type: functional; set-up: scale not given: the % may be the effect or the level left
[23] = Solubility of the compound in water; type: physicochemical; details: buffer
Streptococcus mutans [24] = experiment: Antiadherence activity in FITC-labelled Streptococcus mutans ATCC 25175 assessed as reduction of bacterial adhesion to hydroxylapatite at 96 ug/mL after 1 hr by fluorescence assay; type: functional; set-up: scale not given: the % may be the effect or the level left
Candida albicans [25] = experiment: Antiadherence activity against FITC-labelled Candida albicans ATCC 28366 assessed as reduction in bacterial adhesion to hydroxylapatite at 3 ug/mL after 1 hr by fluorescence assay; type: functional, organism-based
Streptococcus mutans [26] = experiment: Antiadherence activity in FITC-labelled Streptococcus mutans ATCC 25175 assessed as reduction in bacterial adhesion to hydroxylapatite at 3 ug/mL after 1 hr fluorescence assay; type: functional, organism-based
Streptococcus mutans [27] = experiment: Inhibition of planktonic growth of Streptococcus mutans ATCC 25175 at 96 ug/mL measured after 24 hrs relative to control; type: organism-based
A549 = experiment: Growth inhibition of human A549 cells; type: functional, cell-based
[28] = molecular target: Mu-type opioid receptor (Rattus norvegicus) (UniProt P33535); experiment: Displacement of [3H]DAMGO from mu-opioid receptor in Long-Evans rat brain after 1 hr by liquid scintillation counting method; type: tissue-based
Actinomyces naeslundii [29] = experiment: Antibiofilm activity against Actinomyces naeslundii ATCC 49340 assessed as prevention of homogenous biofilm formation up to 96 ug/mL after 24 hrs by crystal violet staining based assay; type: functional, organism-based
Actinomyces naeslundii [30] = experiment: Antibiofilm activity against Actinomyces naeslundii ATCC 49340 assessed as inhibition of bacterial adhesion up to 96 ug/mL after 24 hrs by crystal violet staining based assay; type: functional, organism-based
Actinomyces naeslundii [31] = experiment: Antibiofilm activity against Actinomyces naeslundii ATCC 49340 assessed as reduction of biofilm formation by visual analysis; type: functional, organism-based
Actinomyces naeslundii [32] = experiment: Antibiofilm activity against Actinomyces naeslundii ATCC 49340 assessed as reduction of biofilm formation at 48 ug/mL after 24 hrs by crystal violet staining based assay; type: functional, organism-based
Streptococcus mutans [33] = experiment: Bactericidal activity against Streptococcus mutans ATCC 25175; type: organism-based
Streptococcus mutans [34] = experiment: Growth inhibition of Streptococcus mutans ATCC 25175 incubated for 24 hrs under aerobic condition by microdilution method; type: organism-based
Enterococcus faecalis = experiment: Antimicrobial activity against vancomycin-resistant Enterococcus faecalis measured after 24 hrs by agar-dilution method; type: functional

Sequence of Mu-type opioid receptor (Rattus norvegicus) (P33535 whole entry): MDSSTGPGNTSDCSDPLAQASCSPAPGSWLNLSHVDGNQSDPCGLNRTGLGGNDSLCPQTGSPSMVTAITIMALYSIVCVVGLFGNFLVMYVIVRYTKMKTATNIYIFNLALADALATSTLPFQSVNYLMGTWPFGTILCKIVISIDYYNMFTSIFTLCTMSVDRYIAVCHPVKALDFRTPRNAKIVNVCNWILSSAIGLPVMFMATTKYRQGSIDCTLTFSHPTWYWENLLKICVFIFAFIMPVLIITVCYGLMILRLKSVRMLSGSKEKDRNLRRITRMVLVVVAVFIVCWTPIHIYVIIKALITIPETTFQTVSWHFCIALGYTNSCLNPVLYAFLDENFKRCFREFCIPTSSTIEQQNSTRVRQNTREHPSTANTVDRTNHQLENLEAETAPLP

SMILES	Activity (Candida albicans [1])	inhibition [3]	MIC (Pseudomonas aeruginosa [4]) [µg/mL]	growth inhibition (GI) (Streptococcus mutans [5])	MIC (Escherichia coli [6]) [µg/mL]	MIC (Staphylococcus aureus [8]) [µg/mL]	inhibition (Porphyromonas gingivalis)	growth inhibition (GI) (Candida albicans [10])	inhibition (Fusobacterium nucleatum)	MIC (Listeria monocytogenes) [µg/mL]	Activity (Candida albicans [12])	inhibition (Streptococcus mutans [13])	Activity (Actinomyces naeslundii [14])	Activity (Streptococcus mutans [19])	also measured
O=C1N[C@H](Cc2ccc(O)cc2)C(=O)N[C@@H]1Cc1ccccc1	Active	inactive	> 192	Toxic	> 192	> 192	inactive	Non-Toxic	inactive	> 192	inactive	inactive	inactive	–	inhibition (INH) (Streptococcus mutans [2]): 20%; Activity (Fibroblast): Non-Toxic; MIC (Pseudomonas aeruginosa [7]): 32 µg/mL (≈ 103 µM); MIC (Staphylococcus aureus [9]): 16 µg/mL (≈ 51.6 µM); MIC (Escherichia coli [11]): 64 µg/mL (≈ 206 µM)
O=C1N[C@@H](Cc2ccc(OCc3ccccc3)cc2)C(=O)N[C@H]1Cc1ccccc1	–	inactive	> 192	Non-Toxic	> 192	> 192	inactive	Non-Toxic	inactive	> 192	Active	Active	–	Active	Activity (Actinomyces naeslundii [15]): inactive; Activity (Streptococcus mutans [16]): inactive; Activity (Streptococcus mutans [17]): Active; Activity (Candida albicans [18]): Active; Activity (Candida albicans [20]): inactive; Activity (Candida albicans [21]): Dose-dependent effect
O=C1N[C@H](Cc2ccc(OCc3ccccc3)cc2)C(=O)N[C@H]1Cc1ccc(OCc2ccccc2)cc1	–	inactive	> 192	Non-Toxic	> 192	> 192	inactive	–	inactive	> 192	–	inactive	–	–	Activity (Candida albicans [22]): 53%; solubility [23]: Insoluble; Activity (Streptococcus mutans [24]): 82%; Activity (Candida albicans [25]): inactive; Activity (Streptococcus mutans [26]): inactive
O=C1N[C@@H](Cc2ccc(O)cc2)C(=O)N[C@H]1Cc1ccccc1	Active	inactive	> 192	Toxic	> 192	> 192	inactive	Non-Toxic	inactive	> 192	inactive	inactive	inactive	–	Activity (Fibroblast): Non-Toxic; inhibition (INH) (Streptococcus mutans [27]): 20%; IC50 (A549): 10 µM; Activity [28]: Active
O=C1N[C@H](Cc2ccc(OCc3ccccc3)cc2)C(=O)N[C@H]1Cc1ccccc1	–	inactive	> 192	Non-Toxic	> 192	> 192	inactive	–	inactive	> 192	–	inactive	–	–	solubility [23]: Insoluble
O=C1N[C@@H](Cc2ccc(OCc3ccccc3)cc2)C(=O)N[C@H]1Cc1ccc(OCc2ccccc2)cc1	–	inactive	> 192	Non-Toxic	> 192	> 192	inactive	Non-Toxic	inactive	> 192	Active	Active	–	Active	Activity (Streptococcus mutans [16]): inactive; Activity (Actinomyces naeslundii [29]): Active; Activity (Streptococcus mutans [17]): Active; inhibition (Actinomyces naeslundii [30]): inactive; inhibition (Actinomyces naeslundii [31]): Active; Activity (Candida albicans [18]): Active; Activity (Candida albicans [20]): inactive; inhibition (Actinomyces naeslundii [32]): Active; Activity (Candida albicans [21]): Dose-dependent effect
O=C1N[C@@H](Cc2ccc(O)cc2)C(=O)N[C@H]1Cc1ccc(O)cc1	Active	inactive	> 192	Toxic	> 192	> 192	inactive	Non-Toxic	inactive	> 192	20%	inactive	inactive	inactive	MBC (Streptococcus mutans [33]): > 192 µg/mL; MIC (Streptococcus mutans [34]): 96 µg/mL (≈ 294 µM); Activity [28]: Active
CC(C)C[C@@H]1NC(=O)[C@@H]2CCCN2C1=O	–	–	–	Non-Toxic	–	–	inactive	–	inactive	–	–	inactive	–	–	MIC (Enterococcus faecalis): 12.5 µg/mL (≈ 59.4 µM)
